# Target: T1, IRAK4 (Homo sapiens, UniProt Q9NWZ3)
# T1 construct: expression of target proteins in cells; endogenous in cells
# T1 sequence (Q9NWZ3 1-460): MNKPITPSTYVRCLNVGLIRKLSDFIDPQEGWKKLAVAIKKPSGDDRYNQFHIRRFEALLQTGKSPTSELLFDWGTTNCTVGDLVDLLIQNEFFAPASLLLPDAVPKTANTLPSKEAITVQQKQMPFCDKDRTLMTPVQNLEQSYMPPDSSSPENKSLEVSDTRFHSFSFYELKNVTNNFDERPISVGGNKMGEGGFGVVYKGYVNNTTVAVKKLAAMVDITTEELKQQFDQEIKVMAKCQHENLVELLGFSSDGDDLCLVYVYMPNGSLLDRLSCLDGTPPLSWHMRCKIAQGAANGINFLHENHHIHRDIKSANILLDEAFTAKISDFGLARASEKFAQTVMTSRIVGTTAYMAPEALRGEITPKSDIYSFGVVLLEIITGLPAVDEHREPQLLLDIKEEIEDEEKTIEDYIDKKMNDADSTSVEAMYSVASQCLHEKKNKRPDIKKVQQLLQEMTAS
# Assay: Western blot degradation of IRAK4
# Assay type: cell-based
# Conditions: hPBMC Cell; 24 hours
# Experimental: Conventional Western blot assay was performed to evaluate the effects of the compounds of the present disclosure on the expression of target proteins in cells.
# (1) Cell Seeding and Protein Harvesting: The selected cells were processed according to the cell seeding procedure and protein harvesting procedure in Table II-2.
# (2) To the collected supernatant, 5×SDS sample loading buffer was added, followed by denaturation at 95 °C for 5 minutes. The denatured samples were then separated by SDS-PAGE electrophoresis on a polyacrylamide gel. Proteins were transferred to a nitrocellulose membrane (0.45 μm NC membrane), blocked with blocking buffer at room temperature for 1 hour, and subjected to antibody incubation and development procedures according to the antibody manufacturer's instructions (Cell Signaling Technology).
# Half-Maximal Degradation Concentration value (the drug concentration required for degrading proteins by 50%, abbreviated as DC50) reads method: comparing the grayscale values of Western blot bands from drug-treated samples with those from blank DMSO-treated controls, and identifying the drug concentration range at which the grayscale value is half that of the DMSO-treated control bands.
# DC50 values can be calculated using ImageJ software to measure grayscale values of Western blot bands from drug-treated samples. The concentration-response curve is fitted to estimate the drug concentration corresponding to half the grayscale value.
# Target protein remaining (%) refers to the percentage of target protein remaining in cells after treatment with protein degrader compounds.
# Calculation method for target protein remaining (%): Use ImageJ software to measure grayscale values of Western blot bands from drug (protein degrader)-treated samples. The grayscale value of drug-treated bands is divided by that of internal control protein bands, and the resulting quotient is normalized to obtain the relative percentage of remaining target protein after protein degrader treatment.
# Target protein degradation rate (%)=1−target protein remaining (%).
row,SMILES,Degradation of substrate protein IRAK4 (substrate protein remaining %)
1,"O=C1CCN(N2C(=O)c3ccc(N4CCC(N5CCC(CN6CCC(n7cc(NC(=O)c8coc(-c9ccnc(NCC%10CC%10)c9)n8)c(C(F)F)n7)CC6)CC5)CC4)cc3C2=O)C(=O)N1 [GT-05133, 2-(2-((cyclopropylmethyl)amino)pyridin-4-yl)-N-(3-(difluoromethyl)-1-(1-((1′-(2-(2,4-dioxotetrahydropyrimidin-1(2H)-yl)-1,3-dioxoisoindolin-5-yl)-[1,4′-bipiperidin]-4-yl)methyl)piperidin-4-yl)-1H-pyrazol-4-yl) oxazole-4-carboxamide]",A (0%≤substrate protein remaining %≤80%)
2,"COc1cc2nn(C3CCN(Cc4ccc5c(c4)C(=O)N(N4CCC(=O)NC4=O)C5=O)CC3)cc2cc1NC(=O)c1cccc(C(F)(F)F)c1 [GT-05078, N-(2-(1-((2-(2,4-dioxotetrahydropyrimidin-1(2H)-yl)-1,3-dioxoisoindolin-5-yl)methyl)piperidin-4-yl)-6-methoxy-2H-indazol-5-yl)-3-(trifluoromethyl)benzamide]",A (0%≤substrate protein remaining %≤80%)
3,"CC(C)(O)c1cc2nn(C3CCN(CC4CCN(c5cccc6c5C(=O)N(N5CCC(=O)NC5=O)C6=O)CC4)CC3)cc2cc1NC(=O)c1cccc(C(F)(F)F)n1 [GT-05221, N-(2-(1-((1-(2-(2,4-dioxotetrahydropyrimidin-1(2H)-yl)-1,3-dioxoisoindolin-4-yl)piperidin-4-yl)methyl)piperidin-4-yl)-6-(2-hydroxypropan-2-yl)-2H-indazol-5-yl)-6-(trifluoromethyl) picolinamide]",A (0%≤substrate protein remaining %≤80%)
4,"CC(C)Nc1cc(-n2ccc3cc(C#N)cnc32)ncc1C(=O)NC1CCN(CC2CCN(c3ccc4c(c3)C(=O)N(N3CCC(=O)NC3=O)C4=O)CC2)CC1 [GT-05813, 6-(5-cyano-1H-pyrrolo[2,3-b]pyridin-1-yl)-N-(1-((1-(2-(2,4-dioxotetrahydropyrimidin-1(2H)-yl)-1,3-dioxoisoindolin-5-yl)piperidin-4-yl)methyl)piperidin-4-yl)-4-(isopropylamino) nicotinamide]",A (0%≤substrate protein remaining %≤80%)
5,"O=C1CCN(N2C(=O)c3ccc(N4CCC(CN5CCN(c6ccc7c(c6)nc(NC(=O)c6cccc(C(F)(F)F)c6)n7[C@H]6CC[C@@H](CO)CC6)CC5)CC4)cc3C2=O)C(=O)N1 [GT-05055, N-(5-(4-((1-(2-(2,4-dioxotetrahydropyrimidin-1(2H)-yl)-1,3-dioxoisoindolin-5-yl)piperidin-4-yl)methyl)piperazin-1-yl)-1-((1s,4s)-4-(hydroxymethyl)cyclohexyl)-1H-benzo[d]imidazol-2-yl)-3-(trifluoromethyl)benzamide]",A (0%≤substrate protein remaining %≤80%)
6,O=C1CCN(N2C(=O)c3ccc(N4CCC(N5CCN(C[C@H]6CC[C@H](n7cc(NC(=O)c8cnn9ccc(N%10C[C@H]%11C[C@@H]%10CO%11)nc89)c(C(F)F)n7)CC6)CC5)C(F)(F)C4)cc3C2=O)C(=O)N1 (some centres unmarked) [GT-05123],A (0%≤substrate protein remaining %≤80%)
7,"O=C1CCN(N2C(=O)c3cccc(N4CCN(C[C@H]5CC[C@H](n6cc(NC(=O)c7cnn8ccc(N9C[C@H]%10C[C@@H]9CO%10)nc78)c(C(F)F)n6)CC5)CC4)c3C2=O)C(=O)N1 [GT-05241, 5-((1R,4R)-2-oxa-5-azabicyclo[2.2.1]heptan-5-yl)-N-(3-(difluoromethyl)-1-((1r,4R)-4-((4-(2-(2,4-dioxotetrahydropyrimidin-1(2H)-yl)-1,3-dioxoisoindolin-4-yl)piperazin-1-yl)methyl)cyclohexyl)-1H-pyrazol-4-yl)pyrazolo[1,5-a]pyrimidine-3-carboxamide]",A (0%≤substrate protein remaining %≤80%)
8,"O=C1CCN(N2C(=O)c3ccc(N4C5CCC4CN(C[C@H]4CC[C@H](n6cc(NC(=O)c7cnn8ccc(N9C[C@H]%10C[C@@H]9CO%10)nc78)c(C(F)F)n6)CC4)C5)cc3C2=O)C(=O)N1 [GT-05240, 5-((1R,4R)-2-oxa-5-azabicyclo[2.2.1]heptan-5-yl)-N-(3-(difluoromethyl)-1-((1r,4R)-4-((8-(2-(2,4-dioxotetrahydropyrimidin-1(2H)-yl)-1,3-dioxoisoindolin-5-yl)-3,8-diazabicyclo[3.2.1]octan-3-yl)methyl)cyclohexyl)-1H-pyrazol-4-yl)pyrazolo[1,5-a]pyrimidine-3-carboxamide]",A (0%≤substrate protein remaining %≤80%)

# Results, then the molecule that gave them:
row,Degradation of substrate protein IRAK4 (substrate protein remaining %),SMILES
1,A (0%≤substrate protein remaining %≤80%),"COc1cc2nn([C@H]3CC[C@H](CN4CCN(C5CCN(c6ccc7c(c6)C(=O)N(N6CCC(=O)NC6=O)C7=O)CC5)CC4)CC3)cc2cc1NC(=O)c1cccc(C(F)(F)F)n1 [GT-08658, N-(2-((1r,4r)-4-((4-(1-(2-(2,4-dioxotetrahydropyrimidin-1(2H)-yl)-1,3-dioxoisoindolin-5-yl)piperidin-4-yl)piperazin-1-yl)methyl)cyclohexyl)-6-methoxy-2H-indazol-5-yl)-6-(trifluoromethyl) picolinamide]"
2,A (0%≤substrate protein remaining %≤80%),"COc1cc2nn([C@H]3CC[C@H](CN4CC5CCC4CN5c4ccc5c(c4)C(=O)N(N4CCC(=O)NC4=O)C5=O)CC3)cc2cc1NC(=O)c1cccc(C(F)(F)F)n1 (some centres unmarked) [GT-08660, N-(2-((1r,4r)-4-((5-(2-(2,4-dioxotetrahydropyrimidin-1(2H)-yl)-1,3-dioxoisoindolin-5-yl)-2,5-diazabicyclo[2.2.2]octan-2-yl)methyl)cyclohexyl)-6-methoxy-2H-indazol-5-yl)-6-(trifluoromethyl) picolinamide]"
3,A (0%≤substrate protein remaining %≤80%),"COc1cc2nn([C@H]3CC[C@H](CN4CCN(c5ccc6c(c5F)C(=O)N(N5CCC(=O)NC5=O)C6=O)CC4)CC3)cc2cc1NC(=O)c1cccc(C(F)(F)F)n1 [GT-08656, N-(2-((1r,4r)-4-((4-(2-(2,4-dioxotetrahydropyrimidin-1(2H)-yl)-4-fluoro-1,3-dioxoisoindolin-5-yl)piperazin-1-yl)methyl)cyclohexyl)-6-methoxy-2H-indazol-5-yl)-6-(trifluoromethyl) picolinamide]"
4,A (0%≤substrate protein remaining %≤80%),"COc1cc2nn([C@H]3CC[C@H](CN4CC5CCC4CN5c4ccc5c(c4)C(=O)N(N4CCC(=O)NC4=O)C5=O)CC3)cc2cc1NC(=O)c1cccc(C(F)(F)F)c1 (some centres unmarked) [GT-08673, N-(2-((1r,4r)-4-((5-(2-(2,4-dioxotetrahydropyrimidin-1(2H)-yl)-1,3-dioxoisoindolin-5-yl)-2,5-diazabicyclo[2.2.2]octan-2-yl)methyl)cyclohexyl)-6-methoxy-2H-indazol-5-yl)-3-(trifluoromethyl)benzamide]"
5,A (0%≤substrate protein remaining %≤80%),"COc1cc2nn([C@H]3CC[C@H](CN4C5CCC4CN(c4ccc6c(c4)C(=O)N(N4CCC(=O)NC4=O)C6=O)C5)CC3)cc2cc1NC(=O)c1cccc(C(F)(F)F)n1 [GT-08654, N-(2-((1r,4r)-4-((3-(2-(2,4-dioxotetrahydropyrimidin-1(2H)-yl)-1,3-dioxoisoindolin-5-yl)-3,8-diazabicyclo[3.2.1]octan-8-yl)methyl)cyclohexyl)-6-methoxy-2H-indazol-5-yl)-6-(trifluoromethyl) picolinamide]"
6,A (0%≤substrate protein remaining %≤80%),"COc1cc2nn([C@H]3CC[C@H](CN4CCN(c5ccc6c(c5)C(=O)N(N5CCC(=O)NC5=O)C6=O)CC4)CC3)cc2cc1NC(=O)c1cccc(C(F)(F)F)n1 [GT-08647, N-(2-((1r,4r)-4-((4-(2-(2,4-dioxotetrahydropyrimidin-1(2H)-yl)-1,3-dioxoisoindolin-5-yl)piperazin-1-yl)methyl)cyclohexyl)-6-methoxy-2H-indazol-5-yl)-6-(trifluoromethyl) picolinamide]"

# Source: patent US20260364184A1, “COMPOUND BASED ON OXOISOINDOLINYL-SUBSTITUTED TETRAHYDROPYRIMIDINE-DIONE AND USE THEREOF” (GLUETACS THERAPEUTICS (SHANGHAI) CO., LTD., priority 2023, published 2026)
